Assay results: ChEMBL document CHEMBL1743141, “Membrane transporters in drug development” (Nat Rev Drug Discov, 2010)
One block for each molecule: values may come before it. Square brackets hold non-standard residues; d marks the D form. Peptide text beside a SMILES is read from it. Sar = CNCC(=O)O

Assays:
Format in all cases: ADME
[1] = molecular target: T1, Solute carrier organic anion transporter family member 1B3 (Homo sapiens, UniProt Q9NPD5); assay: Substrates of transporters of clinical importance in the absorption and disposition of drugs, OATP1B3
T1 sequence (Q9NPD5 whole entry): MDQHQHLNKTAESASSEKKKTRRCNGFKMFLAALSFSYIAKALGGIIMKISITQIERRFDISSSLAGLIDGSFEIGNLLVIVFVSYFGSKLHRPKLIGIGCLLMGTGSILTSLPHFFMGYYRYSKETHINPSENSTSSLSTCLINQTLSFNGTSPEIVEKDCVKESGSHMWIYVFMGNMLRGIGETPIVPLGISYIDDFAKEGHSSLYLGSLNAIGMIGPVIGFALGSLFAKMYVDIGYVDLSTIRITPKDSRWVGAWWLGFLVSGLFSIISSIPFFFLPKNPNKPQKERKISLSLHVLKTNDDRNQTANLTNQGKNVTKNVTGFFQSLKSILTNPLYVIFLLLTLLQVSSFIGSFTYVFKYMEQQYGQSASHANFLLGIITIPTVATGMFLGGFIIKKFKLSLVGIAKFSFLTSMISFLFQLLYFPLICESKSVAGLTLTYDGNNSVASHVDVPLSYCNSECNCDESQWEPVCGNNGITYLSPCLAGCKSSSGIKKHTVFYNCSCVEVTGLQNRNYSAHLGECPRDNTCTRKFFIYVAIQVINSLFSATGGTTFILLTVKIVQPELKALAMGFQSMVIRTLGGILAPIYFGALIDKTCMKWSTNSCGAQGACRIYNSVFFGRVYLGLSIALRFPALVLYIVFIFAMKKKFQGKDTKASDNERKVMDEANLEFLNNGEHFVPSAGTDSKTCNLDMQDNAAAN

[2] = molecular target: T2, Solute carrier family 15 member 2 (Homo sapiens, UniProt Q16348); assay: Substrates of transporters of clinical importance in the absorption and disposition of drugs, PEPT2
T2 sequence (Q16348 whole entry): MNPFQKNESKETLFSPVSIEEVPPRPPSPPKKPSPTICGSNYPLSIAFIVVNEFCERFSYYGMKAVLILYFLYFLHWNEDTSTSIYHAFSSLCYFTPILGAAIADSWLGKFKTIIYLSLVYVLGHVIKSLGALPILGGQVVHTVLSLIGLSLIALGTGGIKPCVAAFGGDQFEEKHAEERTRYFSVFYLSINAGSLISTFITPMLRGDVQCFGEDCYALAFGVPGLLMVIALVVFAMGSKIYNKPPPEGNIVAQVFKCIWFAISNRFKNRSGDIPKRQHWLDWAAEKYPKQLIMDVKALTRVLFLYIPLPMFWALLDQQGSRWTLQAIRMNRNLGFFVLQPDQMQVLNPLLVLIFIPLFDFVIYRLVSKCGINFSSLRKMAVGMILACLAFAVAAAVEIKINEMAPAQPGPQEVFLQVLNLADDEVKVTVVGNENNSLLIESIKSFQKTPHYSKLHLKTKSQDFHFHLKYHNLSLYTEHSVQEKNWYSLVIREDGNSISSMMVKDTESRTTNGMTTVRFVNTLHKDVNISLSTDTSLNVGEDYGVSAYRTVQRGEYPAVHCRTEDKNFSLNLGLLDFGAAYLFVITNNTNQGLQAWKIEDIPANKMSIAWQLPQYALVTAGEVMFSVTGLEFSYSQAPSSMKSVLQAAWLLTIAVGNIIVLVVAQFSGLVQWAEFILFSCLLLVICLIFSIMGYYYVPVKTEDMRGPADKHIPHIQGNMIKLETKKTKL

[3] = molecular target: T3, Solute carrier family 15 member 1 (Homo sapiens, UniProt P46059); assay: Substrates of transporters of clinical importance in the absorption and disposition of drugs, PEPT1
T3 sequence (P46059 whole entry): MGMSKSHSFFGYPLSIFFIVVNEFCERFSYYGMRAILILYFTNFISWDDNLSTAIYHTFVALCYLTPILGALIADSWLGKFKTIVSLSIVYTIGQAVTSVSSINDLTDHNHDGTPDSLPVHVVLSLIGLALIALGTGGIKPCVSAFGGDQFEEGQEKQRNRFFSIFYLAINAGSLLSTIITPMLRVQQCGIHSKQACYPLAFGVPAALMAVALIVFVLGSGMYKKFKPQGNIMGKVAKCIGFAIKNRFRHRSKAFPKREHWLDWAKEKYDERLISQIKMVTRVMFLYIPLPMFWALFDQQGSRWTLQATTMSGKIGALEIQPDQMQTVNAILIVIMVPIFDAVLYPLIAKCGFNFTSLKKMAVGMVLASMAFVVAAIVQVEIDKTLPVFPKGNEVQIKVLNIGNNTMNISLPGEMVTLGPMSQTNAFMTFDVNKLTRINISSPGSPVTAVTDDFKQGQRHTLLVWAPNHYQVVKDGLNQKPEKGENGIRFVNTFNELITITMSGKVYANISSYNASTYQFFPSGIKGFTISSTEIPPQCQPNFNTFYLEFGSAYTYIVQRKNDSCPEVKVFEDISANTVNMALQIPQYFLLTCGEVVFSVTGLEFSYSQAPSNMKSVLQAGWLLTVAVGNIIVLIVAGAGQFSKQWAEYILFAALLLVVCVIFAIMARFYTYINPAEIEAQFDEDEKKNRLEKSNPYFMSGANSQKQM

[4] = molecular target: T4, Solute carrier family 22 member 2 (Homo sapiens, UniProt O15244); assay: Substrates of transporters of clinical importance in the absorption and disposition of drugs, OCT2
T4 sequence (O15244 whole entry): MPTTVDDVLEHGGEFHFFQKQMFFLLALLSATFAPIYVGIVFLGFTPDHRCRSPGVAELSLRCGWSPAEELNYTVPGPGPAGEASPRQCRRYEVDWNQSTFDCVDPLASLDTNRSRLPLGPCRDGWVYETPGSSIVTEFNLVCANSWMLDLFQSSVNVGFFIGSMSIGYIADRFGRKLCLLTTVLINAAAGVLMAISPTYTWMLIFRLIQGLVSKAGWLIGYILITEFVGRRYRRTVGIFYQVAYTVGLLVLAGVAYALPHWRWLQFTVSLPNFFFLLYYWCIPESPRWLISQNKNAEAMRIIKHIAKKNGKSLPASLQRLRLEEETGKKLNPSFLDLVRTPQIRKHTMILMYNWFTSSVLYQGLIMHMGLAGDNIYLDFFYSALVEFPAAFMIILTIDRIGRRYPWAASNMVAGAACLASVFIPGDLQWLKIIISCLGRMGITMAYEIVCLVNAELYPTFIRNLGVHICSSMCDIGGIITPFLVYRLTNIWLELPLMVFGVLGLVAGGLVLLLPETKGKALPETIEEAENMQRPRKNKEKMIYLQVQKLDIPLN

[5] = molecular target: T5, Solute carrier organic anion transporter family member 1B1 (Homo sapiens, UniProt Q9Y6L6); assay: Substrates of transporters of clinical importance in the absorption and disposition of drugs, OATP1B1
T5 sequence (Q9Y6L6 whole entry): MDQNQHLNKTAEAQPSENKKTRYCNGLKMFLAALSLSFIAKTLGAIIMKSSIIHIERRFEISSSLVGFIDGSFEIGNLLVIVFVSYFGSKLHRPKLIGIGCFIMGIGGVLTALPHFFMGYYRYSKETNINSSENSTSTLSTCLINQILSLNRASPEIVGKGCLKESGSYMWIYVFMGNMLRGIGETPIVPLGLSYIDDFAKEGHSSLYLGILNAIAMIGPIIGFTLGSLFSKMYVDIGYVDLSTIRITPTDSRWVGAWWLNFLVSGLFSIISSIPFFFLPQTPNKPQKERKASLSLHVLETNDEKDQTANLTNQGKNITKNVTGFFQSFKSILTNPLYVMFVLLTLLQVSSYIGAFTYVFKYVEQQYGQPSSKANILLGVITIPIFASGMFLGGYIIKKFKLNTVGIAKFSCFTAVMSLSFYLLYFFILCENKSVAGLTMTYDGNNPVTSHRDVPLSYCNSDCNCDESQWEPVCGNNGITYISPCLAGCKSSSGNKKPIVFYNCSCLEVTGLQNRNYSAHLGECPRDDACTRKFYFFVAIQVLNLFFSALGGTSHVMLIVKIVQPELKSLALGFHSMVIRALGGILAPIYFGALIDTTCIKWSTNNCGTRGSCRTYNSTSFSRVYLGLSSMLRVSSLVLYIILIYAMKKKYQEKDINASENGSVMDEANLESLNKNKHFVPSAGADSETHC

[6] = molecular target: T6, Solute carrier organic anion transporter family member 1A2 (Homo sapiens, UniProt P46721); assay: Substrates of transporters of clinical importance in the absorption and disposition of drugs, OATP1A2
T6 sequence (P46721 whole entry): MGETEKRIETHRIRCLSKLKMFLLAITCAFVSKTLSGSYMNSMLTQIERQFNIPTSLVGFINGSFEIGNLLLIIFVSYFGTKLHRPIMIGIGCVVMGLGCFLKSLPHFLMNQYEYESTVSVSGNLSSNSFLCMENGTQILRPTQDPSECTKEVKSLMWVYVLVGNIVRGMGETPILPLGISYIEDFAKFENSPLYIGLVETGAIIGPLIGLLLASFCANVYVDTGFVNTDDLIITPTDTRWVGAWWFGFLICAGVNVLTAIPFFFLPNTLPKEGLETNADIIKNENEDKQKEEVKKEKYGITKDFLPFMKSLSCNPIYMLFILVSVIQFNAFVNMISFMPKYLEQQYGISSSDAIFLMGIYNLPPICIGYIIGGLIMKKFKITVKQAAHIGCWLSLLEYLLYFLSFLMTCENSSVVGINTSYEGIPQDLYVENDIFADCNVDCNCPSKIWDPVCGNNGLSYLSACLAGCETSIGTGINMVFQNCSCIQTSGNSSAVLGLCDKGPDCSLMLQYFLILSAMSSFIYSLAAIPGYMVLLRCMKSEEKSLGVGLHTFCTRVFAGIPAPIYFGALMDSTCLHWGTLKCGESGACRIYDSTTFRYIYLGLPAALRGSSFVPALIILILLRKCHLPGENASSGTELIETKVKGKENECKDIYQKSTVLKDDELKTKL

Activity [1]: transporter substrate
Compound: CCCc1nc2c(C)cc(-c3nc4ccccc4n3C)cc2n1Cc1ccc(-c2ccccc2C(=O)O)cc1

Activity [2]: transporter substrate
Activity [3]: transporter substrate
Compound: CCOC(=O)[C@H](CCc1ccccc1)N[C@@H](C)C(=O)N1CCC[C@H]1C(=O)O

Activity [4]: transporter substrate
Compound: NC12CC3CC(CC(C3)C1)C2 [AMANTADINE]

Compound: N=C(N)NC(=O)c1nc(Cl)c(N)nc1N [AMILORIDE]
Activity [4]: transporter substrate

Activity [2]: transporter substrate
Activity [3]: transporter substrate
Compound: NCC(=O)CCC(=O)O [AMINOLEVULINIC ACID]

Activity [5]: transporter substrate
Compound: C=CC1=C(C)/C(=C/c2[nH]c(Cc3[nH]c(/C=C4\NC(=O)C(C)=C4C=C)c(C)c3CCC(=O)O[C@@H]3O[C@H](C(=O)O)[C@@H](O)[C@H](O)[C@H]3O)c(CCC(=O)O[C@@H]3O[C@H](C(=O)O)[C@@H](O)[C@H](O)[C@H]3O)c2C)NC1=O [BILIRUBIN GLUCURONIDE]

Activity [5]: transporter substrate
Compound: C=CC1=C(C)/C(=C/c2[nH]c(Cc3[nH]c(/C=C4\NC(=O)C(C)=C4C=C)c(C)c3CCC(=O)O)c(CCC(=O)O)c2C)NC1=O [BILIRUBIN]

Activity [2]: transporter substrate
Activity [3]: transporter substrate
Compound: CC1=C(C(=O)O)N2C(=O)[C@@H](NC(=O)[C@H](N)c3ccc(O)cc3)[C@H]2SC1 [CEFADROXIL]

Activity [2]: transporter substrate
Activity [3]: transporter substrate
Compound: CC1=C(C(=O)O)N2C(=O)[C@@H](NC(=O)[C@H](N)c3ccccc3)[C@H]2SC1 [CEPHALEXIN ANHYDROUS]

Activity [2]: transporter substrate
Activity [3]: transporter substrate
Compound: CN(CC(=O)O)C(=O)CN [GLYCYLSARCOSINE] (H-Gly-[Sar]-OH)

Activity [6]: transporter substrate
Compound: C[C@H]1COc2c(N3CCN(C)CC3)c(F)cc3c(=O)c(C(=O)O)cn1c23.C[C@H]1COc2c(N3CCN(C)CC3)c(F)cc3c(=O)c(C(=O)O)cn1c23.O [LEVOFLOXACIN]

Compound: C[C@@H]1O[C@@H](O[C@H]2C[C@@H](O)[C@]3(CO)[C@H]4[C@H](O)C[C@]5(C)[C@@H](C6=CC(=O)OC6)CC[C@]5(O)[C@@H]4CC[C@]3(O)C2)[C@H](O)[C@H](O)[C@H]1O [OUABAIN]
Activity [6]: transporter substrate

Compound: CC(C)NCC(O)COc1cccc2[nH]ccc12 (stereo not given) [PINDOLOL]
Activity [4]: transporter substrate

Activity [4]: transporter substrate
Compound: CNC(=C[N+](=O)[O-])NCCSCc1ccc(CN(C)C)o1 [RANITIDINE]

Activity [5]: transporter substrate
Compound: CCOc1cc(CC(=O)N[C@@H](CC(C)C)c2ccccc2N2CCCCC2)ccc1C(=O)O [REPAGLINIDE]

Compound: CSCC[C@H](NC(=O)[C@H](Cc1ccc(OS(=O)(=O)O)cc1)NC(=O)[C@@H](N)CC(=O)O)C(=O)NCC(=O)N[C@@H](Cc1c[nH]c2ccccc12)C(=O)N[C@@H](CCSC)C(=O)N[C@@H](CC(=O)O)C(=O)N[C@@H](Cc1ccccc1)C(N)=O [SINCALIDE]
Activity [1]: transporter substrate

Activity [1]: transporter substrate
Compound: CCCc1nc2c(C)cc(-c3nc4ccccc4n3C)cc2n1Cc1ccc(-c2ccccc2C(=O)O[C@@H]2O[C@H](C(=O)O)[C@@H](O)[C@H](O)[C@H]2O)cc1 [TELMISARTAN GLUCURONIDE]

Activity [2]: transporter substrate
Activity [3]: transporter substrate
Compound: CC(C)C[C@H](NC(=O)[C@@H](O)[C@H](N)Cc1ccccc1)C(=O)O [UBENIMEX]

Activity [4]: transporter substrate
Compound: c1cnc2cc3c(cc2n1)[C@@H]1CNC[C@H]3C1 [VARENICLINE]
